# In ChEMBL document CHEMBL1135263, “Reductive amination products containing naphthalene and indole moieties bind to melanocortin receptors” (Bioorg Med Chem Lett, 2002):
# Legend:
# [1] = molecular target: T1, Melanocortin receptor 3 (Homo sapiens, UniProt P41968); assay: Tested for its binding affinity towards human recombinant Melanocortin 3 receptor by using radioligand binding assay
# [2] = molecular target: Melanocortin receptor 4 (Homo sapiens, UniProt P32245); assay: Tested for its binding affinity towards human recombinant Melanocortin 4 receptor by using radioligand binding assay
# Melanocortin receptor 4, sequence (P32245 whole entry): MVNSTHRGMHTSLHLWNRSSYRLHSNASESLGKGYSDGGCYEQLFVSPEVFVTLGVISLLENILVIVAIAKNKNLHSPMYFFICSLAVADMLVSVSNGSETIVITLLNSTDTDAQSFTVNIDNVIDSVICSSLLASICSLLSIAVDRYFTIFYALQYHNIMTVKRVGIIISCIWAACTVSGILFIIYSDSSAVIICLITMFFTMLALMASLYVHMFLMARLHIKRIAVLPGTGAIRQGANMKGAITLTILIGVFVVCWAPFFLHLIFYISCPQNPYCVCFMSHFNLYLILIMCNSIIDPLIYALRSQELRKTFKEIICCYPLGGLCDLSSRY
# [3] = molecular target: Melanocortin receptor 5 (Homo sapiens, UniProt P33032); assay: Tested for its binding affinity towards human recombinant Melanocortin 5 receptor by using radioligand binding assay
# Melanocortin receptor 5, sequence (P33032 whole entry): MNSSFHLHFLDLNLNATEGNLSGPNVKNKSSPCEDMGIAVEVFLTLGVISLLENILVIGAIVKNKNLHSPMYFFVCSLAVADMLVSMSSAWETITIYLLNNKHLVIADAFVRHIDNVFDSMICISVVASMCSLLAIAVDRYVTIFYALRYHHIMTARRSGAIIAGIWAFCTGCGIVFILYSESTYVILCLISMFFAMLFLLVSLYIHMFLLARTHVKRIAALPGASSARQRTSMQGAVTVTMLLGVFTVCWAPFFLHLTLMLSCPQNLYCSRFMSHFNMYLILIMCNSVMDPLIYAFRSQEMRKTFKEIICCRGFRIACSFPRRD
# [4] = molecular target: T2, Melanocyte-stimulating hormone receptor (Homo sapiens, UniProt Q01726); assay: Tested for its binding affinity towards human recombinant Melanocortin 1 receptor by using radioligand binding assay
# T2 sequence (Q01726 whole entry): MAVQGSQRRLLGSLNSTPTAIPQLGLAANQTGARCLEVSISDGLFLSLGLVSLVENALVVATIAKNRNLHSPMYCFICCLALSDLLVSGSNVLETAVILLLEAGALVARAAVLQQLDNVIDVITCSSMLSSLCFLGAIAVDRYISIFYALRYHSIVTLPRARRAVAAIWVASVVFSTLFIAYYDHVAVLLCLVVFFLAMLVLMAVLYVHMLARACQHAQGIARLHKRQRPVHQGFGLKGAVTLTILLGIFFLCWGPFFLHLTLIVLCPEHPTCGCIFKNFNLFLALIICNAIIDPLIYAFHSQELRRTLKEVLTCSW
# [5] = molecular target: T1, Melanocortin receptor 3; assay: Tested for its binding affinity towards human recombinant Melanocortin 3 receptor by using radioligand binding assay; nb = no binding up to 0.5 mM
# [6] = molecular target: T2, Melanocyte-stimulating hormone receptor; assay: Tested for its binding affinity towards human recombinant Melanocortin 1 receptor by using radioligand binding assay; nb = no binding up to 0.5 mM
# T1 sequence (P41968 whole entry): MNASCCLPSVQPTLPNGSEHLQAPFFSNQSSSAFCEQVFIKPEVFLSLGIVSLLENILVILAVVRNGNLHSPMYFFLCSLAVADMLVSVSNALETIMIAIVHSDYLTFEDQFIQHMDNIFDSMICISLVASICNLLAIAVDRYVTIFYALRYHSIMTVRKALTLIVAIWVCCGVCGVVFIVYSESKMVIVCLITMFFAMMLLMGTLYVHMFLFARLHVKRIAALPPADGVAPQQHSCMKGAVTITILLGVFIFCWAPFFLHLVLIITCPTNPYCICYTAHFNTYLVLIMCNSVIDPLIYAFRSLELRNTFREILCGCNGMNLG
Ki [1] [µM],Ki [2] [µM],Ki [3] [µM],Ki [4] [µM],Ki [5],Ki [6],SMILES
52,70,12,11,–,–,NC(N)=NCCC[C@H](N)C(=O)N(Cc1cccc2ccccc12)Cc1c[nH]c2ccccc12
58,44,28,27,–,–,NCCNC(=O)[C@H](CNCc1ccc2ccccc2c1)NCc1ccc2ccccc2c1
31,56,36,19,–,–,N=C(N)NCCCNCc1ccc2ccccc2c1
56,27,36,0.7,–,–,NCCCNC(=O)[C@H](CNCc1c[nH]c2ccccc12)NCc1ccc2ccccc2c1
> 1000,> 1000,100,> 1000,–,–,c1ccc2cc(CNCc3cccc4ccccc34)ccc2c1
57,94,43,> 1000,–,–,NCCCNCc1ccc2ccccc2c1
214,161,38,26,–,–,c1ccc2c(CNCc3c[nH]c4ccccc34)cccc2c1
294,89,45,46,–,–,N[C@H](CCC(=O)O)C(=O)N(Cc1ccc2ccccc2c1)Cc1cccc2ccccc12
167,24,173,9.8,–,–,NCCCCNC(=O)[C@H](CCCCNCc1c[nH]c2ccccc12)NCc1ccc2ccccc2c1
> 1000,68,74,> 1000,–,–,N=C(N)N1CCN(Cc2ccc3ccccc3c2)CC1
–,8.8,83,–,Not Active,Not Active,NCCNCc1ccc2ccccc2c1
19,15,10,1.5,–,–,"NC(N)=NCCCC(N)C(=O)N(CCc1c[nH]c2ccccc12)Cc1ccc2ccccc2c1 (single isomer, unassigned)"
9,5.4,2.5,0.69,–,–,NC(N)=NCCC[C@H](N)C(=O)N(Cc1ccc2ccccc2c1)Cc1cccc2ccccc12 (stereo in doubt; 11b)
18,2.1,2.7,1.2,–,–,NC(N)=NCCC[C@H](N)C(=O)N(Cc1ccc2ccccc2c1)Cc1cccc2ccccc12 (stereo in doubt; 11c)

SMILES,Ki [1] [µM],Ki [2] [µM],Ki [3] [µM],Ki [4] [µM],Ki [5],Ki [6]
c1ccc2c(CCNCc3c[nH]c4ccccc34)c[nH]c2c1,86,161,18,32,–,–
c1ccc2c(CN3CCNCC3)c[nH]c2c1,> 1000,> 1000,256,> 1000,–,–
c1ccc2cc(CNCCc3c[nH]c4ccccc34)ccc2c1,59,118,14,16,–,–
NCCCNCc1c[nH]c2ccccc12,145,104,150,28,–,–
N=C(N)N1CCN(Cc2c[nH]c3ccccc23)CC1,> 1000,> 1000,> 1000,> 1000,–,–
N=C(N)NCCCNCc1c[nH]c2ccccc12,45,107,47,12,–,–
c1ccc2cc(CN3CCNCC3)ccc2c1,> 1000,> 1000,141,> 1000,–,–
